Data published in PMC10873021 (Biochemistry, 2023).

How the values were obtained:
[1] = test system: PglJ Cc 33237; conditions: 20 μM Und-PP-diNAcBac-GalNAc; 0.1 nM enzyme; 5 mM MgCl2; 0.1% Triton X-100; 50 mM HEPES pH 7.5; 100 mM NaCl
[2] = test system: PglJ Cc 13826; conditions: 20 μM Und-PP-diNAcBac-GalNAc; 0.1 nM enzyme; 5 mM MgCl2; 0.1% Triton X-100; 50 mM HEPES pH 7.5; 100 mM NaCl
[3] = biological target: PglJ Cj 11168 (Campylobacter jejuni, UniProt Q0P9C7); test: UDP-Glo glycosyltransferase assay, UDP-sugar screen; format: biochemical; conditions: 10 nM enzyme; 25 μM UDP-sugar; 20 μM Und-PP-diNAcBac-GalNAc; 5 mM MgCl2; pH 7.5
[4] = test system: PglJ Cc 33237; conditions: 25 μM UDP-sugar; 20 μM Und-PP-diNAcBac-GalNAc; 5 mM MgCl2; pH 7.5; varying enzyme
[5] = test system: PglJ Cc 13826; conditions: 1 mM ligand; 10 mM HEPES pH 7.5; 150 mM NaCl; 5% glycerol; 2 mM DTT; 0.03% DDM
[6] = test system: PglJ Cc 33237; conditions: 1 mM ligand; 10 mM HEPES pH 7.5; 150 mM NaCl; 5% glycerol; 2 mM DTT; 0.03% DDM

Compound	dTm [5]	dTm [6]	also measured
CC(=O)N[C@H]1[C@@H](OP(=O)(O)OP(=O)(O)OC[C@H]2O[C@@H](n3ccc(=O)[nH]c3=O)[C@H](O)[C@@H]2O)O[C@H](C(=O)O)[C@H](O)[C@@H]1O [UDP-GalNAcA]			Km [1]: 7.4 ± 2.5 µM; Km [2]: 3.8 ± 1.9 µM
CC(=O)N[C@H]1[C@@H](OP(=O)(O)OP(=O)(O)OC[C@H]2O[C@@H](n3ccc(=O)[nH]c3=O)[C@H](O)[C@@H]2O)O[C@H](CO)[C@H](O)[C@@H]1O [UDP-GalNAc]			UDP-Glo glycosyltransferase assay, UDP-sugar screen [3]: At the same concentration, the PglJ from C. jejuni preferred UDP-GalNAc; UDP-Glo glycosyltransferase assay, UDP-sugar screen [4]: this variant now transfers GalNAc from UDP-GalNAc onto the growing Und-PP-glycan
CC(=O)N[C@H]1[C@@H](OP(=O)(O)OP(=O)(O)OC[C@H]2O[C@@H](n3ccc(=O)[nH]c3=O)[C@H](O)[C@@H]2O)O[C@H](C(=O)O)[C@@H](O)[C@@H]1O [UDP-GlcNAcA]	(UDP-GalNAcA and UDP-GlcNAcA) stabilized the PglJ enzymes from both strains of C. concisus studied	(UDP-GalNAcA and UDP-GlcNAcA) stabilized the PglJ enzymes from both strains of C. concisus studied	
O=c1ccn([C@@H]2O[C@H](COP(=O)(O)OP(=O)(O)O)[C@@H](O)[C@H]2O)c(=O)[nH]1 [UDP]	Significant stabilization was observed with UDP, the nucleotide product of the glycosyltransferase reaction	Significant stabilization was observed with UDP, the nucleotide product of the glycosyltransferase reaction	
